Experimental data reported in patent US20260199484A1, “PROTAC DEGRADERS OF MLLT1 AND/OR MLLT3” (DARK BLUE THERAPEUTICS LTD, priority 2024, published 2026).

Biological target: T1, MLLT1 (Homo sapiens, UniProt Q03111)
T1 sequence (Q03111 1-559): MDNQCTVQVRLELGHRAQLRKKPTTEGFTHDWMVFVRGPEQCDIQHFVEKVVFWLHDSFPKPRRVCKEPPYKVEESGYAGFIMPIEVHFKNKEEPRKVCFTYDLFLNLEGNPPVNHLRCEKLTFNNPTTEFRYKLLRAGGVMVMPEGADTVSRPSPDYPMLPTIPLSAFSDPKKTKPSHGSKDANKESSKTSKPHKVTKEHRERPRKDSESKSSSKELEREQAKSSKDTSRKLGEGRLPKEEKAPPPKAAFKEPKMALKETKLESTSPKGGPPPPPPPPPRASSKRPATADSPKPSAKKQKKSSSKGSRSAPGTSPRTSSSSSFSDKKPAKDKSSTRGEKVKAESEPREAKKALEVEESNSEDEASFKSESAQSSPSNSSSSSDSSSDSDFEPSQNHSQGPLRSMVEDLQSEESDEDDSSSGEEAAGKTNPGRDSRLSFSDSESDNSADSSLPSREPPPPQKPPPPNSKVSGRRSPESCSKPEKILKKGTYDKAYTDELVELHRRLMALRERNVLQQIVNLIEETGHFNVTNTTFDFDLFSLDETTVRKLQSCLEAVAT
Assay: MLLT1 degradation assay in MV4-11 cells (JESS, 24 h)
Format: cell-based
Parameters: endogenous in cells; host or cells: MV4-11 (ATCC CRL-9591)
Conditions: vs DMSO control
Description: MLLT1 degradation efficacy of compounds was tested in an automated chemiluminescent detection system (JESS, Cat #004-650). MV4-11 (#CRL-9591, ATCC) cells were seeded at a density of 1.2 million cells/well in a non-treated 6-well cell culture plate in 2.4 mL of complete medium (IMDM+10% FBS+1× Penicillin-Streptomycin). 10 mM DMSO stocks were prepared, and cells were treated with three concentrations of test compounds viz. 1000, 100 and 10 nM at a final DMSO concentration of 0.1% and incubated for 24 h at 37° C., 5% CO2. Post incubation, cells were centrifuged, washed with HBSS and lysed in 70 μL of RIPA buffer supplemented with Protease inhibitors (sc-24948; Santa Cruz). Subsequently, protein estimation was done using BCA protein assay kit (23225; Pierce). 4 ug protein lysate (4 uL of 1 ug/uL lysate) was loaded into each well of the JESS cartridge (SM-W001; Bio-techne) and the JESS run was performed using 1:900 dilution of anti-human MLLT1 antibody (14893; Cell signaling technology) and 1:1200 dilution of anti-human GAPDH antibody (2118; Cell signaling technology) with anti-rabbit secondary detection module (DM-001; Bio-Techne). Post run, data were analysed using “Compass for SW” software for chemiluminescent detection. The peak area for each band was used for the calculation of MLLT1 degradation with respect to DMSO control. Data is shown as “MLLT1% degradation”. • Category A: A≥75% degradation • Category B: 50%≤B<75% degradation • Category C: 25%≤C<50% degradation • Category D: D<25% degradation

Compound	MLLT1% Degradation @ 0.01 μM	MLLT1% Degradation @ 0.1 μM	MLLT1% Degradation @ 1 μM
Cc1nn(CCCCCCCC#Cc2ccnc(C(=O)N[C@H]3CCC(=O)NC3=O)c2)c2cc(C(=O)Nc3cc4[nH]c([C@H]5CCCN5C)cc4cn3)ccc12 [Example 43, 1-(9-(2-(((S)-2,6-dioxopiperidin-3-yl)carbamoyl)pyridin-4-yl)non-8-yn-1-yl)-3-methyl-N-(2-((R)-1-methylpyrrolidin-2-yl)-1H-pyrrolo[3,2-c]pyridin-6-yl)-1H-indazole-6-carboxamide]	C (Category C: 25%≤C<50% degradation)	B (Category B: 50%≤B<75% degradation)	A (Category A: A≥75% degradation)
Cc1nn(CCCCCCCC#Cc2cccc(C(=O)N[C@H]3CCC(=O)NC3=O)c2F)c2cc(C(=O)Nc3cc4[nH]c([C@H]5CCCN5C)cc4cn3)ccc12 [Example 51, 1-(9-(3-(((S)-2,6-dioxopiperidin-3-yl)carbamoyl)-2-fluorophenyl)non-8-yn-1-yl)-3-methyl-N-(2-((R)-1-methylpyrrolidin-2-yl)-1H-pyrrolo[3,2-c]pyridin-6-yl)-1H-indazole-6-carboxamide]	C (Category C: 25%≤C<50% degradation)	B (Category B: 50%≤B<75% degradation)	A (Category A: A≥75% degradation)
Cc1nn(CCCCCCCC#Cc2cccc(C3CCC(=O)NC3=O)n2)c2cc(C(=O)Nc3cc4[nH]c([C@H]5CCCN5C)cc4cn3)ccc12 (stereo partly drawn) [Example 62, 1-(9-(6-(2,6-dioxopiperidin-3-yl)pyridin-2-yl)non-8-yn-1-yl)-3-methyl-N-(2-((R)-1-methylpyrrolidin-2-yl)-1H-pyrrolo [3,2-c]pyridin-6-yl)-1H-indazole-6-carboxamide]	B (Category B: 50%≤B<75% degradation)	B (Category B: 50%≤B<75% degradation)	A (Category A: A≥75% degradation)

The remaining lines, values ahead:

MLLT1% Degradation @ 0.01 μM	MLLT1% Degradation @ 0.1 μM	MLLT1% Degradation @ 1 μM	Compound
A (Category A: A≥75% degradation)	A (Category A: A≥75% degradation)	A (Category A: A≥75% degradation)	Cc1nn(CCCCCOCC#Cc2cccc3c2CN(C2CCC(=O)NC2=O)C3=O)c2cc(C(=O)Nc3cc4[nH]c([C@H]5CCCN5C)cc4cn3)ccc12 (stereo partly drawn) [Example 49, 1-(5-((3-(2-(2,6-dioxopiperidin-3-yl)-1-oxoisoindolin-4-yl)prop-2-yn-1-yl)oxy)pentyl)-3-methyl-N-(2-((R)-1-methylpyrrolidin-2-yl)-1H-pyrrolo[3,2-c]pyridin-6-yl)-1H-indazole-6-carboxamide]
A (Category A: A≥75% degradation)	A (Category A: A≥75% degradation)	A (Category A: A≥75% degradation)	Cc1nn(CCOCCCCC#Cc2cccc3c2CN(C2CCC(=O)NC2=O)C3=O)c2cc(C(=O)Nc3cc4[nH]c([C@H]5CCCN5C)cc4cn3)ccc12 (stereo partly drawn) [Example 50, 1-(2-((6-(2-(2,6-dioxopiperidin-3-yl)-1-oxoisoindolin-4-yl)hex-5-yn-1-yl)oxy)ethyl)-3-methyl-N-(2-((R)-1-methylpyrrolidin-2-yl)-1H-pyrrolo[3,2-c]pyridin-6-yl)-1H-indazole-6-carboxamide]
C (Category C: 25%≤C<50% degradation)	B (Category B: 50%≤B<75% degradation)	A (Category A: A≥75% degradation)	Cc1nn(CCCCCCCC#Cc2cc3c(cc2F)C(=O)N(C2CCC(=O)NC2=O)C3)c2cc(C(=O)Nc3cc4[nH]c([C@H]5CCCN5C)cc4cn3)ccc12 (stereo partly drawn) [Example 60, 1-(9-(2-(2,6-dioxopiperidin-3-yl)-6-fluoro-1-oxoisoindolin-5-yl)non-8-yn-1-yl)-3-methyl-N-(2-((R)-1-methylpyrrolidin-2-yl)-1H-pyrrolo[3,2-c]pyridin-6-yl)-1H-indazole-6-carboxamide]
